# Test results reported in US20060264411A1, “Control of biofilm formation” (priority 2005, published 2006).
# Columns and labels:
# [1] = tested on: E. coli laboratory strain JM109; test: Biofilm formation inhibition, crystal violet, E. coli laboratory strain JM109; type: cell-based; conditions: Escherichia coli, read-out: inhibited biofilm formation as compared to the controls
# Method: Biofilm inhibition experiments were conducted using an assay adapted from the reported protocol described in Pratt and Kolter, 1998, Molecular Microbiology, 30: 285-293; Li et al., 2001, J. Bacteriol., 183: 897-908. E. coli clinical strain UTI89 was grown in LB in 96 well plates at room temperature for one or two days without shaking. E. coli laboratory strain JM109 was grown in LB plus 0.2% glucose in 96 well plates at room temperature for one day without shaking. To quantify the biofilm mass, the suspension culture was poured out and the biofilm was washed three times with water. The biofilm was stained with 0.1% crystal violet for 20 minutes. The plates were then washed three times with water. OD reading at 540 nm was measured to quantify the biofilm mass at the bottom of the wells. Then 95% ethanol was added to dissolve the dye at the bottom and on the wall and the OD reading at 540 nm was measured to quantify the total biofilm mass. To study the overall effect of the compounds (3.6 mg/mL in 100% ethanol as stock solution), it was added with the inoculation and a time course of biofilm mass was measured. Appropriate amounts of 100% ethanol were added to each sample to eliminate the effect of solvent. Each condition had 3-4 replicates on each plate and was performed over multiple days.
# [2] = tested on: P. aeruginosa strain PAO1; test: Rotating disk reactor (RDR) biofilm test with and without tobramycin; type: cell-based, Pseudomonas aeruginosa; conditions: for Test Compound, log10 CFU: no tobramycin; for Tobramycin and Test Compound, log10 CFU: then tobramycin 100 μg/ml 2 h
# Method: Biofilm formation of P. aeruginosa was evaluated using a standardized biofilm method with a rotating disk reactor (RDR). This method provides a model resembling the formation of biofilms in cystic fibrosis patients. The rotating disk reactor consists of a one-liter glass beaker fitted with a drain spout. The bottom of the vessel contains a magnetically driven rotor with six 1.27 cm diameter coupons constructed from polystyrene. The rotor consists of a star-head magnetic stir bar upon which a disk was affixed to hold the coupons. The vessel with the stir bar was placed on a stir plate and rotated to provide fluid shear. A nutrient solution (AB Trace Medium with 0.3 mM glucose, see Table 1 below for composition) was added through a stopper in the top of the reactor at a flow rate of 5 ml/min. The reactor volume was approximately 180 ml and varied slightly between reactors depending on the placement of the drain spout and the rotational speed of the rotor. At a volume of 180 ml, the residence time of the reactors was 36 minutes. The reactors were operated at room temperature (c.a. 26° C.).
# For each test, two RDRs were operated in parallel with one receiving test compound and the other serving as an untreated control. The RDRs were sterilized by autoclave, then filled with sterile medium and inoculated with P. aeruginosa strain PAO1. The reactors were then incubated at room temperature in batch mode (no medium flow) for a period of 24 hours, after which the flow was initiated for a further 24 hour incubation. Test compounds were dissolved in 10 ml ethanol to achieve a concentration of 1.8 mg/ml. After the 48 hours of biofilm development described above, the 10 ml of ethanol containing the test compounds were added to the reactor to achieve a final concentration of approximately 50, 100, or 200 μg/ml. Control reactors received 10 ml of ethanol. The reactors were then incubated for an additional 24 hours in batch (no flow) mode. After this incubation period, the six coupons were removed from each reactor and placed in 12-well polystyrene tissue culture plates with wells containing either 2 ml of a 100 μg/ml tobramycin solution or 2 ml of phosphate-buffered saline (PBS). These plates were incubated at room temperature for two hours. The coupons were then rinsed by three transfers to plates containing 2 ml of fresh PBS. For each two RDR reactors run in parallel, four sets of three coupons were obtained: one set with no test compound treatment and no tobramycin treatment, one set with no test compound treatment and tobramycin treatment, one set treated with a test compound treatment and no tobramycin treatment, and one set treated with a test compound treatment and tobramycin. After rinsing, one coupon of each set of three was stained with a LIVE/DEAD® BacLight™ Bacterial Viability Kit (Molecular Probes, Eugene Oreg.) and imaged using epifluorescent microscopy. The remaining two coupons were placed in 10 ml of PBS and sonicated for five minutes to remove and disperse biofilm cells. The resulting bacterial suspensions were then serially diluted in PBS and plated on tryptic soy agar plates for enumeration of culturable bacteria. The plates were incubated for 24 hours at 37° C. before colony forming units (CFU) were determined.
# The results are averages from experiments performed on three separate days for each test compound. The values reported are as log10 CFU.
# E. coli (ATCC 25922) = test: Antibacterial effect (NCCLS MIC); type: cell-based; conditions: Escherichia coli, ATCC25922, studied at 64 μg/mL, read-out: MIC (minimal inhibitory concentration)
# Method: (§1) Using the appropriate NCCLS procedures, the antibacterial effect of asiatic acid on Haemophilus influenzae (ATCC 10211), E. coli (ATCC 25922), and P. aeruginosa (ATCC 27853) was studied at 64 μg/mL.
# [3] = tested on: Haemophilus influenzae (ATCC 10211); test: Antibacterial effect (NCCLS MIC); type: cell-based; conditions: ATCC10211, studied at 64 μg/mL, read-out: MIC (minimal inhibitory concentration)
# Method: as §1
# [4] = tested on: P. aeruginosa (ATCC 27853); test: Antibacterial effect (NCCLS MIC); type: cell-based; conditions: Pseudomonas aeruginosa, ATCC27853, studied at 64 μg/mL, read-out: MIC (minimal inhibitory concentration)
# Method: as §1
structure (smiles),measurement,setting,value
"C[C@H]1[C@H](C)CC[C@]2(C(=O)O)CC[C@]3(C)C(=CC[C@@H]4[C@@]5(C)C[C@@H](O)[C@H](O)[C@@](C)(CO)[C@@H]5CC[C@]43C)[C@H]12 [Asiatic acid, asiatic acid]",inhibition at 5 µg/mL,"[1]; JM 109, 5 ug/ml",~70%
same,inhibition at 10 µg/mL,"[1]; JM 109, 10 ug/ml",~80%
same,"Test Compound, log10 CFU",[2]; test compound 50 μg/ml 24 h,7.7 log10 CFU
same,"Tobramycin and Test Compound, log10 CFU",[2]; test compound 50 μg/ml 24 h,5.3 log10 CFU
same,"Test Compound, log10 CFU",[2]; test compound 100 μg/ml 24 h,7.7 log10 CFU
same,"Tobramycin and Test Compound, log10 CFU",[2]; test compound 100 μg/ml 24 h,5.5 log10 CFU
same,"Test Compound, log10 CFU",[2]; test compound 200 μg/ml 24 h,7.5 log10 CFU
same,"Tobramycin and Test Compound, log10 CFU",[2]; test compound 200 μg/ml 24 h,5.2 log10 CFU
same,MIC,E. coli (ATCC 25922),> 64 µg/mL
same,MIC,[3],> 64 µg/mL
same,MIC,[4],> 64 µg/mL
